Bridges are numbered along the chain shown (N, C = ends). Where no end group is shown, it is not given here. [ ]: non-standard residue; d: D form.
What was measured:
[1] = tested on: MLR in a BALB/c (H-2D) anti C3H (H-2K) alloresponse; assay: MLR of Example 10 (Table II); format: cell-based, mouse; details: MLR without peptide 66000 CPM
Method: (§1) Mice were sacrificed and spleens aseptically removed. Cell suspensions were made by gently pressing spleens through nylon mesh, washing cells with RPMI 1640 and hypotonic lysis of red blood cells. After 3 washes in RPMI 1640, cells were resuspended in complete medium (RPMI 1640, 10% heat inactivated FCS, 2 mM L-glutamine, penicillin/streptomycin, and […]). 1×10^5 responder cells (BALB/c spleen cells) were incubated with 1×10^5 stimulator cells (C3H spleen cells, 2000 rad irradiated) in triplicate in round bottom 96 well plates (final volume 200 μl), and incubated with the indicated concentration of peptide (0.01, 0.1, 1, 10, 100 and 1000 μM peptide) for 5 days at 37° C., 5% CO2. 1 μCi/WELL OF [^3 H] TdR was added 12 hours before thymidine incorporation was measured. Labelled DNA from cells was harvested onto glass fiber filters with a PHD cell harvester (Cambridge, Mass.), and CPM determined by liquid scintillation counting with the use of a 1209 Rackbeta (LKB, Piscataway, N.J.).
A MLR was performed as described in Example 6. h84-101 C--C, SEQ ID NO:4, SEQ ID NO:5, SEQ ID NO:6, SEQ ID NO:11, (SEQ ID NO:4+SEQ ID NO:5), and a monoclonal antibody directed against CD4 (OKT4A) were tested for their effect on MLR in a BALB/c (H-2D) anti C3H (H-2K) alloresponse. MLR was also performed without the addition of peptide or antibody (MLR). Each peptide individually has inhibitory activity to a moderate level (30-50%), but when two analogs are added together (SEQ ID NO:4 and SEQ ID NO:5) the effect was synergistic and the inhibition approached 100%, as compared to a monoclonal antibody directed against CD4 (OKT4A).

[2] = tested on: human T cells stimulated with PHA; assay: Phytohemagglutinin T cell proliferation assay; format: cell-based
Method: The mitogen phytohemagglutinin (PHA) activates T cells by cross-linking CD3/TCR complexes. Human blood is collected from volunteer donors. Lymphocytes are purified by separation over a Ficoll gradient. T cells are separated by rosetting to sheep red blood cells. The enriched T cell population is stimulated with 5 μg/ml phytohemagglutinin (PHA). FIG. 7 illustrates the ability of the D2 peptide analogs to inhibit T cell proliferation in response to PHA stimulation. […] Results are illustrated in FIG. 7.

[3] = tested on: BALB/c spleen cells (responder) with irradiated C3H spleen cells (stimulator); assay: Mixed lymphocyte reaction (MLR), BALB/c anti-C3H alloresponse; format: cell-based, mouse
From the text: The mixed lymphocyte reaction (MLR) is the response of one individual's T lymphocytes to those of a major histocompatibility complex (MHC) mismatched donor. CD4+ T cells recognize the foreign MHC proteins and proliferate in response to this, in a manner highly dependent on the CD4 molecule.
as §1
A MLR was performed as described in Example 6. Cells were incubated with a 0.01, 0.1, 1, 10, 100, and 1000 μM of each of the following peptides: SEQ ID NO:1 (mPGPtide), and control peptides, SEQ ID NO:3 (hPGPtides) and SEQ ID NO:13 (mCDR3 scramble). […] Activity was approximately 85000 CPM after the addition of 0.01 μM SEQ ID NO:1, and approximately 30000 CPM after the addition of 200 μM SEQ ID NO:1. […] Activity was approximately 75000 CPM at 0.01 μM SEQ ID NO:3, and approximately 60000 CPM after the addition of 200 μM SEQ ID NO:3. Similarly, activity was approximately 80000 CPM after the addition of 0.01 μM of SEQ ID NO:13, and approximately 90000 CPM after the addition of 200 μM SEQ ID NO:13. […]

[4] = tested on: human mixed lymphocyte reaction; assay: Human mixed lymphocyte reaction (Example 8, FIG. 3); format: cell-based
EAE in SJL mice = assay: Experimental allergic encephalomyelitis (EAE) model; format: in vivo, mouse; details: for maximum EAE incidence: SJL mice, untreated 83%; for maximum mean EAE severity grade (0-5): untreated 2.17; for average time of initial onset: untreated day 15.6
Method: Experimental allergic encephalomyelitis (EAE) is considered to be the best experimental animal model for the study of multiple sclerosis since it shares many of the same clinical and histopathological features as the human disorder. EAE can be elicited in several animal species, including mice, by inoculation of crude CNS tissue extracts, purified MBP, proteolipids, or synthetic polypeptides composed of the active portions of these antigenic molecules. Antigen is administered subcutaneously in conjunction with complete Freund's adjuvant (CFA) and, in our modification of the standard procedure, is given twice on days 0 and 7 for induction (Korngold et al., (1986) Immunogenetics 24:309-315, which is incorporated herein by reference). Symptoms of disease usually occur between 15-19 days after initial immunization and may last for up to 25 days. Mice usually recover from the acute EAE attack, but may relapse at a later time, or are susceptible to an enhanced disease episode upon further immunization.
SJL mice, which are highly susceptible to the induction of acute EAE, were immunized as described in Korngold et al., (1986) Immunogenetics 24:309-315. Accordingly, 1 mg of crude SJL mouse spinal cord homogenate (MSCH) was diluted in 0.15 ml phosphate buffered solution and emulsified in an equal volume of CFA. 0.15 ml of the inoculum was injected subcutaneously in each of two sites on the posterior flank of mice anesthetized with metaphane. A secondary inoculation, similar to the primary, was administered at 7 days. Mice were evaluated daily for symptoms of disease and graded 0-5: 0=no clinical expression of disease; 1=flaccid tail with or without mild hind leg weakness; 2=flaccid tail with moderate hind leg weakness; 3=severe hind leg weakness and mild forelimb weakness; 4=total hind leg paralysis associated with moderate forelimb weakness; and 5=quadriplegia or a moribund state.
The mice were divided into four groups: the first left untreated; the second injected on days 2 and 8 intravenously 10 (i.v.) with 0.5 mg of the D amino acid CDR3-like peptide #1; the third injected on day 12 i.v. with the D amino acid CDR3-like peptide #1; and the fourth injected i.v. on days 2 and 8 with a control D-polypeptide of similar length to the D amino acid CDR3-like peptide #1.
With the same experiment described above, mice from the different treatment groups were scored for the clinical expression of disease. […] The ifferences were statistically significant, by Tukey multiple analysis of variance, between: the untreated and the D amino acid CDR3-like peptide #1 day 2,8 treated group on days 16-19 and 24 […]; the untreated and the D amino acid CDR3-like peptide #1 day 12 treated group on days 16-24 (0.01≤p≤0.05); and the control peptide day 2,8 group and the D amino acid CDR3-like peptide #1 day 2,8 treated group on day 17 (p=0.02).
To investigate whether D amino acid CDR3-like peptide #1 could have an effect upon the development of EAE once symptoms have already appeared and therefore corresponding to the effector phase of the disease, 30 SJL mice were inoculated on days 0 and 7 with MSCH and CFA, as described above. 12 mice that had reached a grade 1 level of clinical EAE expression by day 16 were selected and randomly grouped to be left untreated or treated with 0.5 mg i.v. of D amino acid CDR3-like peptide #1. […] At day 18, the difference between the untreated and treated groups was statistically significant (p=0.003).

[5] = tested on: lethal GVHD in irradiated DBA/2 mice given B10.D2 CD4+ T cells; assay: GVHD mediated by CD4+ T cells; format: in vivo, mouse; details: 0.5 mg i.v. on days 0 and 3
From the text: The transplantation of B10.D2 CD4+ T cells along with T-cell-depleted bone marrow has been shown previously to induce a lethal GVHD response in irradiated (850 cGy) DBA/2 mice (Korngold and Sprent, (1987) J. Exp. Med. 165:1552-1564).

For LESPPGSSPSV [SEQ ID NO:5], the CPM [1] was 48000 CPM, the “CPM after PHA stimulation” value ([2]; 0.25 μM peptide, 5 μg/ml PHA) was 53500 CPM and the “CPM after PHA stimulation” value ([2]; 250 μg peptide) was 39500 CPM.

In the case of C*RSPRGKNC [SEQ ID NO:6], the CPM [1] was 50000 CPM, the “CPM after PHA stimulation” value ([2]; 0.25 μM peptide, 5 μg/ml PHA) was 48000 CPM and the “CPM after PHA stimulation” value ([2]; 250 μg peptide) was 39500 CPM.

TCTNLQNQKKVECK [SEQ ID NO:4] was tested, and the CPM [1] was 42000 CPM, the “CPM after PHA stimulation” value ([2]; 0.25 μM peptide, 5 μg/ml PHA) was 47000 CPM and the “CPM after PHA stimulation” value ([2]; 250 μg peptide) was 38000 CPM.

For CLLVFEVEDQKEEVQGLC [SEQ ID NO:13], the “MLR activity (CPM)” value ([3]; 0.01 μM peptide) was “approximately 80000 CPM”, the “MLR activity (CPM)” value ([3]; 200 μM peptide) was “approximately 90000 CPM” and the “inhibitory activity on MLR” value ([3]; BALB/c anti-C3H MLR, 5 days, [3H]TdR incorporation) was “little or no activity”. For the same substance, the “% CPM of the positive control” value ([4]; 500 μM peptide) was “about 100%” and the “inhibition of the proliferative response of the human MLR” value ([4]; 0.1-1000 μM) was “little or no inhibition”.

“CPGPEEKRNELEC ([dC][dP]G[dP][dE][dE][dK][dR][dN][dE][dL][dE][dC]; disulfide 1-13 (inferred)) [D amino acid CDR3-like peptide #1]” was tested, and the “EAE severity grade reached, effector phase” value (EAE in SJL mice; 0.5 mg i.v. at grade 1 on day 16, value on day 19, untreated 2.4 by day 18) was 1.17, the “maximum EAE incidence” value (EAE in SJL mice; i.v. on day 12) was 31% and the “maximum EAE incidence” value (EAE in SJL mice; i.v. on days 2 and 8 (0.5 mg)) was 36%. For the same substance, the “days of peak EAE severity” value (EAE in SJL mice; groups treated on days 2,8 or day 12) was 19 to 21 days, the “effect on the course of disease progression (EAE)” value (EAE in SJL mice; murine EAE model) was “dramatically intervened in the progression” and the “maximum mean EAE severity grade (0-5)” value (EAE in SJL mice; treated on day 12) was 0.75. The “average time of initial onset” value (EAE in SJL mice; treated on day 12) was 17.0 days, the “maximum mean EAE severity grade (0-5)” value (EAE in SJL mice; treated on days 2,8) was 0.77 and the “average time of initial onset” value (EAE in SJL mice; treated on days 2,8) was 17.1 days. For the same substance, the incidence of survival ([5]; untreated 83% lethal GVHD) was 57% and the median survival time ([5]; untreated 15 days, experiment ended at 65 days) was “greater than 65 days”.
